Data from patent US4025629A, “P-(trifluoromethylquinolylamino)benzamides, pharmaceutical dosage forms and method of treatment” (The Upjohn Company, priority 1975, dated 1977).
Values joined by “and” are separate entries in the source; they are usually repeats but may differ in a detail not shown here. Equal entries are not always repeated.

How the values were obtained:
[1] = test system: unanesthetized normotensive rats; assay: Hypotensive effect (mean arterial pressure) in unanesthetized normotensive rats, oral aqueous suspension; format: in vivo, rat; details: for B.P. Change: individual rats
Protocol: An aqueous suspension for oral administration is prepared by suspending the essential active ingredient at a concentration of 10 mg./ml. in an aqueous solution containing 1% of sodium carboxymethylcellulose. This suspension is used for bringing about hypotensive effects in unanesthetized normotensive rats. The rats are prepared for measuring blood pressure directly from the aorta through a chronic indwelling cannula (Weeks and Jones, Proc. Soc. Exptl. Biol. and Med., 104, 646, 1960). Mean arterial pressure is measured prior to and at four hours and 24 hours after drug administration at a specified dose.

[2] = test system: male mice (motor activity); assay: Inhibition of motor activity of mice on drug-containing diet (actophotometers); format: in vivo, mouse; details: after 20 hours on diet
Protocol: The essential active ingredient is suspended in a normal mouse diet to provide a concentration in the diet of from about 0.03 to about 0.3%. Groups of male mice, 18-22 gm. each, are fed a stock diet containing various concentrations of the essential active ingredient. Motor activity is determined after 20 hours on the diet, four groups of two mice from each test group being placed in actophotometers. After a ten minute acclimation period, motor activity is recorded for a ten minute period with the following results: […]

[3] = test system: Schistosoma Mansoni cercariae; details: 160 mg./kg. subcutaneously; cited from earlier work
[4] = test system: Plasmodium berghei; details: mice; 160 mg./kg. subcutaneously; cited from earlier work

## CN1CCN(C(=O)c2ccc(Nc3ccnc4cc(C(F)(F)F)ccc34)cc2)CC1 [essential active ingredient, p-[(7-trifluoromethyl-4-quinolyl)amino]-N,N-(3-methyl-3-azapentamethylene)benzamide]
[1]; oral 1 mg./kg., 4 hr.
  B.P. Change: 0 mm Hg
[1]; oral 1 mg./kg., 24 hr.
  B.P. Change: -10 mm Hg and 0 mm Hg
[1]; oral 3.12 mg./kg., 4 hr.
  B.P. Change: -18 mm Hg and +12 mm Hg and 0 mm Hg
[1]; oral 3.12 mg./kg., 24 hr.
  B.P. Change: -18 mm Hg and -10 mm Hg
[1]; oral 6.35 mg./kg., 4 hr., average of 4 rats (initial avg 138)
  B.P. Change, avg: -13 mm Hg
[1]; oral 6.35 mg./kg., 4 hr.
  B.P. Change: -14 mm Hg and -16 mm Hg
[1]; oral 6.35 mg./kg., 24 hr., average of 4 rats (initial avg 138)
  B.P. Change, avg: -12 mm Hg
[1]; oral 6.35 mg./kg., 24 hr.
  B.P. Change: -10 mm Hg and -14 mm Hg
[1]; oral 12.5 mg./kg., 24 hr., average of 4 rats (initial avg 132)
  B.P. Change, avg: -17 mm Hg
[1]; oral 12.5 mg./kg., 24 hr.
  B.P. Change: -24 mm Hg and -12 mm Hg
[1]; oral 25 mg./kg., 4 hr., average of 4 rats (initial avg 138)
  B.P. Change, avg: -18 mm Hg
[1]; oral 25 mg./kg., 4 hr.
  B.P. Change: -22 mm Hg and -30 mm Hg and -12 mm Hg
[1]; oral 25 mg./kg., 24 hr., average of 4 rats (initial avg 138)
  B.P. Change, avg: -23 mm Hg
[1]; oral 25 mg./kg., 24 hr.
  B.P. Change: -22 mm Hg and -28 mm Hg and -20 mm Hg
[1]; oral 50 mg./kg., 4 hr., average of 4 rats (initial avg 133)
  B.P. Change, avg: -13 mm Hg
[1]; oral 50 mg./kg., 4 hr.
  B.P. Change: -16 mm Hg and -22 mm Hg
[1]; oral 50 mg./kg., 24 hr., average of 4 rats (initial avg 133)
  B.P. Change, avg: -17 mm Hg
[1]; oral 50 mg./kg., 24 hr.
  B.P. Change: -22 mm Hg and -28 mm Hg and 0 mm Hg
[2]; 0.1% conc. in diet, 24 hour drug intake 95 mg./kg.
  % Inhibition Motor Activity: 96%
[2]; 0.3% conc. in diet (third line), 24 hour drug intake 47 mg./kg.
  % Inhibition Motor Activity: 68%
[2]; 0.3% conc. in diet, 24 hour drug intake 94 mg./kg.
  % Inhibition Motor Activity: 92%

## CN1CCN(C(=O)c2ccc(Nc3ccnc4cc(Cl)ccc34)cc2)CC1 [1-[p-[(7-chloro-4-quinolyl)amino]-N,N-(3-methyl-3-azapentamethylene]benzamide]
[3]
  activity against Schistosoma Mansoni cercariae in mice: Slight activity
[4]
  activity against Plasmodium berghei: Slight activity

## CN1CCN(C(=O)c2cccc(Nc3ccnc4cc(Cl)ccc34)c2)CC1 [its meta isomer]
[3]
  activity against Schistosoma Mansoni cercariae in mice: Slight activity
[4]
  activity against Plasmodium berghei: Slight activity
